Assay results taken from patent publication US20250032460A1, “METHODS OF TREATING NEUROLOGICAL DISORDERS” (MapLight Therapeutics, Inc., priority 2021, published 2025).
“Also recorded” adds a separate entry of the source.

Assays:
[1] = Clinical observations during 7-day oral dosing in beagle dogs; details: Group 1: Compound 1 1.5 mg/kg/day PO, individual dog, 1.5 mg/kg/day
[2] = Plasma pharmacokinetics after single-dose intravenous administration in rats; type: in vivo, Sprague Dawley rats; details: rat, in vivo, iv, 1.5 mg/kg
Protocol: The plasma concentration-time profile was evaluated for fesoterodine active metabolite desfesoterodine and Compound 1 in male Sprague Dawley rats following single-dose intravenous administration of fesoterodine (0.25 mg/kg) and Compound 1 (0.5 mg/kg and 1.5 mg/kg) alone and single-dose co-administration. Plasma exposures of desfesoterodine were similar following administration of fesoterodine alone and in combination with Compound 1.

[3] = system: Compound 1 induced salivation; assay: Fesoterodine dose-response antagonistic effect on Compound 1 induced salivation in anaesthetized rats; type: in vivo, Sprague Dawley rats
Protocol: An in vivo primary pharmacology study evaluating the fesoterodine fumarate dose-response antagonistic effect on Compound 1 induced salivation in anaesthetized male Sprague Dawley rats was conducted. […] Intravenous fesoterodine doses were administered at […]. Fesoterodine was dosed 10 minutes prior to dosage of Compound 1. All animals were normal with no observed abnormality detected in clinical signs or behavior. Salivation was measured by using oral dry swab in anesthetized rats with the calculated difference between the dry swab weight and the wet swab weight indicating the weight of saliva produced. Samples were collected post-dosing for one hour at 10-minute intervals.

[4] = Single ascending dose study with or without fesoterodine fumarate: safety and tolerability; type: in vivo, healthy adult volunteers
Protocol: Compound 1 was administered in a single ascending dose (SAD) study conducted in approximately 54 healthy adult volunteers to investigate Compound 1 pharmacokinetics, safety, and tolerability. The study was conducted in two groups.
Group 1 evaluated multiple dose cohorts administered Compound 1 in a single ascending dose (SAD) manner to establish a maximum tolerated dose (MTD) using the doses described in Table 10.
MTD was established at the dose which produced mild to moderate cholinergic adverse effects. Cholinergic effects were monitored for each dose, including pupillometry and salivation.
Group 2 evaluated tolerability of Compound 1 at Group 1 MTD with or without fesoterodine fumarate co-administration. Subjects received 8 mg of fesoterodine fumarate tablet or matched placebo tablet 4 hours prior to administration of 40 mg of Compound 1.

[5] = Plasma concentrations during 7-day oral dosing in beagle dogs; type: in vivo; details: male, beagle, dog, in vivo, po, 1.5 mg/kg/day
[6] = Compound 1 (1.5 mg/kg) IV alone
[7] = Group 2: 40 mg Compound 1, 4 hours after 8 mg fesoterodine fumarate tablet or placebo tablet
[8] = Plasma concentration of Compound 1, Mean

Cc1noc([C@@]23CNC[C@@H]2C3)n1 [Compound 1, 1-(3-methyl-[1,2,4]oxadiazol-5-yl)-(1R,5R)-3-aza-bicyclo[3.1.0]hexane]
Clinical Observation ([1]; day 1): For D1005, ptyalism was found 1 hr 20 min after dosing on day 1; also recorded: For D1001, soft feces were found 1 hr 45 min after dosing on day 1; also recorded: For D1005, about 4 mL white foamy mucoid vomitus was found 40 min; also recorded: For D1005, soft feces was found 1 hr after dosing on day 1; also recorded: For D1005, about 8 mL yellow foamy mucoid vomitus was found 1 hr | Clinical Observation ([1]; day 3): For D1005, 20 mL chyme was found 45 min after dosing on day 3; also recorded: For D1005, soft feces was found 80 min after dosing on day 3; also recorded: For D1005, 20 mL liquid feces was found 3.5 hr after dosing on day 3; also recorded: For D1001, ptyalism was found 2 hr after dosing on day 3. 8 hr recover; also recorded: For D1001, 20 mL chyme and ptyalism were found 3.5 hr after dosing; also recorded: For D1002, 10 mL chyme was found 55 min after dosing on day 3; also recorded: For D1002, 10 mL liquid feces and ptyalism were found 80 min after; also recorded: For D1002, ptyalism was found 2 hr after dosing on day 3. 8 hr recover; also recorded: For D1003, ptyalism was found 2 hr after dosing on day 3. 8 hr recover; also recorded: For D1003, 10 mL chyme, 5 mL liquid feces and ptyalism were found; also recorded: For D1003, 10 mL liquid feces and ptyalism were found 4 hr after; also recorded: For D1004, 15 mL chyme and soft feces were found 55 min after dosing; also recorded: For D1004, 2 mL liquid feces and ptyalism were found 80 min after; also recorded: For D1004, 20 mL chyme was found 90 min after dosing on day 3; also recorded: For D1004, ptyalism was found 2 hr after dosing on day 3. 8 hr recover; also recorded: For D1001, 10 mL chyme was found 55 min after dosing on day 3 | Clinical Observation ([1]; day 4): For D1005, 15 mL chyme was found 40 min after dosing on day 4; also recorded: For D1005, 10 mL chyme and 10 mL liquid feces were found 2 hr after; also recorded: For D1001, 15 mL chyme was found 2 hr after dosing on day 4; also recorded: For D1001, ptyalism and 15 mL liquid feces were found 3 hr after; also recorded: For D1002, 15 mL chyme and 10 mL liquid feces were found 2 hr after; also recorded: For D1002, ptyalism and 5 mL liquid feces were found 3 hr after dosing; also recorded: For D1003, soft feces was found 3 hr after dosing on day 4; also recorded: For D1004, ptyalism was found 2 hr after dosing on day 4; also recorded: For D1004, 8 mL liquid feces was found 3 hr after dosing on day 4; also recorded: For D1004, soft feces was found 220 min after dosing on day 4 | Clinical Observation ([1]; day 5): For D1003, 5 mL chyme was found 2 hr after dosing on day 5. | Clinical Observation ([1]; day 6): For D1005, 15 mL chyme, 30 mL liquid feces and ptyalism were found; also recorded: For D1005, 15 mL chyme was found 2 hr after dosing on day 6; also recorded: For D1001, ptyalism was found 30 min after dosing on day 6. 8 hr; also recorded: For D1001, ptyalism and soft feces were found 1 hr after dosing on day 6; also recorded: For D1002, ptyalism was found 30 min after dosing on day 6. 8 hr; also recorded: For D1002, 10mL liquid feces and ptyalism were found 1 hr after dosing; also recorded: For D1002, 20 mL chyme, 10 mL liquid feces and ptyalism were found; also recorded: For D1003, ptyalism was found 30 min after dosing on day 6. 8 hr; also recorded: For D1003, 30 mL liquid feces, ptyalism and tremor were found 2 hr; also recorded: For D1003, 10 mL chyme was found 3 hr after dosing on day 6; also recorded: For D1004, 10 mL liquid feces and ptyalism were found 1 hr after; also recorded: For D1004, 5 mL chyme was found 3 hr after dosing on day 6 | Clinical Observation ([1]; day 7): For D1005, about 8 mL liquid feces was found 2 hr after dosing on day 7; also recorded: For D1001, ptyalism was found 1 hr after dosing on day 7. 4 hr recover; also recorded: For D1001, miosis was found 1 hr after dosing on day 7. 8 hr recover; also recorded: For D1001, about 5 mL liquid feces and about 3 mL yellow liquid; also recorded: For D1002, ptyalism was found 1 hr after dosing on day 7. 4 hr recover; also recorded: For D1003, ptyalism was found 1 hr after dosing on day 7. 4hr recover; also recorded: For D1003, about 10 mL liquid feces was found 2 hr after dosing on day 7; also recorded: For D1004, ptyalism was found 1 hr after dosing on day 7. 4 hr recover; also recorded: For D1004, about 3 mL yellow liquid vomitus was found 1 hr after | Vss as fold of total body water (0.7 L/kg) ([2]; male, Sprague Dawley): approximately 2.4 fold | plasma clearance as % of the normal liver blood flow in rats (55 mL/min/kg) ([2]; male, Sprague Dawley): approximately 50% | AUC(0-t) ([2]; male, Sprague Dawley, AUClast of Compound 1): 917 ng·h/mL | C0 ([2]; male, Sprague Dawley, C0 of Compound 1): 1520 ng/mL | clearance ([2]; male, Sprague Dawley, CL of Compound 1): 27.2 mL/min/kg | half-life ([2]; male, Sprague Dawley, T1/2 of Compound 1): 49.8 min | Vd ([2]; male, Sprague Dawley, VSS of Compound 1): 1.71 L/kg | PK parameters of Compound 1, single-agent vs co-administration with fesoterodine [2]: comparable | Salivation (mg) (mean value), 10 min [3, 6]: 414.44 mg | Salivation (mg) (mean value), 20 min [3, 6]: 126.95 mg | Salivation (mg) (mean value), 30 min [3, 6]: 59.21 mg | Salivation (mg) (mean value), 40 min [3, 6]: 61.22 mg | Salivation (mg) (mean value), 50 min [3, 6]: 24.79 mg | Salivation (mg) (mean value), 60 min [3, 6]: 22.15 mg | Salivation (mg) (mean value), Total [3, 6]: 708.76 mg | effect on salivation compared to 0.9% saline vehicle control ([3]; Compound 1 IV alone): significant effect in increase in salivation | subjects who reported TEAEs ([4]; Group 1, 1 mg, placebo 50.0%): ~33.3% | subjects who reported TEAEs ([4]; Group 1, 3 mg, placebo 50.0%): About 50.0% | subjects who reported TEAEs ([4]; Group 1, 10 mg, placebo 50.0%): About 50.0% | subjects who reported TEAEs ([4]; Group 1, 20 mg, placebo 50.0%): About 50.0% | subjects who reported TEAEs ([4]; Group 1, 40 mg, placebo 50.0%): ~83.3% | subjects who reported TEAEs ([4]; Group 1, 60 mg, placebo 50.0%): ~100% | deaths, serious TEAEs, discontinuations ([4]; Group 1, 1-60 mg single oral dose): no deaths or serious TEAEs reported, and no subjects discontinued the study due to a TEAE | total treatment-emergent adverse events (TEAEs) ([4]; Group 1, 36 subjects who received any dose of compound 1 (1-60 mg single oral)): 95 | subjects with TEAEs (number of the 36 subjects) ([4]; Group 1, any dose of compound 1): 22 | subjects with TEAEs ([4]; Group 1, any dose of compound 1, of the 36 subjects): 61.6% | day of onset of TEAEs (Day 1 = day of dosing) [4, 7]: 1 days | deaths, serious or severe TEAEs [4, 7]: no deaths, serious or severe TEAEs reported | most frequent TEAEs observed [4, 7]: salivary hypersecretion and dizziness | number of TEAEs reported [4, 7]: 9 | subjects who reported TEAEs [4, 7]: 100.0% | MTD of Compound 1 when administered alone ([4]; single oral dose, healthy subjects): 40 mg | safety and tolerability ([4]; single oral doses ranging from 1 mg to 40 mg, healthy subjects): generally safe and well tolerated | Plasma concentration of Compound 1, Mean ([5]; 1 h): 387 ng/mL | Plasma concentration of Compound 1, Mean ([5]; 2 h): 470.6 ng/mL | Plasma concentration of Compound 1, Mean ([5]; 4 h): 99.48 ng/mL | Plasma concentration of Compound 1, Mean ([5]; 8 h): 17.098 ng/mL | concentration at 1 h [5, 8]: 378 ng/mL | concentration at 2 h [5, 8]: 288 ng/mL | concentration at 4 h [5, 8]: 98.6 ng/mL | concentration at 8 h [5, 8]: 14.7 ng/mL
